Test results: patent publication US20080015255A1, “Pharmaceutical Compositions Based on Fluorinated Sulphamides and Sulphinimides” (CENTRE NATIONAL DE LA RECHERCHE SCIENTIFIQUE(C.N.R.S.), priority 2004, published 2008)

Molecular target: bovine carbonic anhydrase (Bos taurus, UniProt P00921)
Assay: Inhibition of bovine carbonic anhydrase esterase activity (hydrolysis of p-nitrophenyl acetate, UV 348 nm)
Details: for inhibition with respect to carboanhydrase, in words: comparable with or even superior to that of acetazolamide; for % inhibition of the hydrolysis of nitrophenyl acetate (NPA) catalyzed by carbonic anhydrase: 25° C.

Chain of bovine carbonic anhydrase (P00921 whole entry): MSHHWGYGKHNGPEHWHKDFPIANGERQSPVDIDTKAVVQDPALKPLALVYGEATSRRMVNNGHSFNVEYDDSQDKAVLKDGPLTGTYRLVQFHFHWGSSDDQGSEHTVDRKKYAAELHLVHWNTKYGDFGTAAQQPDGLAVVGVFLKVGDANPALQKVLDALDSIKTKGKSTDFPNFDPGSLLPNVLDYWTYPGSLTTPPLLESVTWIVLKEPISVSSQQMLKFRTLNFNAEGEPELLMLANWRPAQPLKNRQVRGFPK

% inhibition of the hydrolysis of nitrophenyl acetate (NPA) catalyzed by carbonic anhydrase (inhibitor 1.35 10^−6 mol/l) [%] | % inhibition of the hydrolysis of nitrophenyl acetate (NPA) catalyzed by carbonic anhydrase (inhibitor 1.35 10^−4 mol/l) [%] | Compound | inhibition with respect to carboanhydrase, in words | % inhibition of the hydrolysis of nitrophenyl acetate (NPA) catalyzed by carbonic anhydrase (inhibitor 1.35 10^−7 mol/l) [%] | % inhibition of the hydrolysis of nitrophenyl acetate (NPA) catalyzed by carbonic anhydrase (inhibitor 1.35 10^−8 mol/l) [%]
0 | 87 | O=S(=O)(NS(=O)(=O)C(F)(F)C(F)(F)C(F)(F)C(F)(F)C(F)(F)C(F)(F)F)C(F)(F)C(F)(F)C(F)(F)C(F)(F)F [(C6F13SO2)NH(C4F9SO2)] | – | – | –
0 | 89 | O=S(=O)(NS(=O)(=O)C(F)(F)C(F)(F)C(F)(F)C(F)(F)C(F)(F)C(F)(F)C(F)(F)C(F)(F)F)C(F)(F)C(F)(F)C(F)(F)C(F)(F)C(F)(F)C(F)(F)C(F)(F)C(F)(F)F [(C8F17SO2)2NH] | – | – | –
0 | 87 | O=S(=O)(NS(=O)(=O)C(F)(F)C(F)(F)C(F)(F)C(F)(F)C(F)(F)C(F)(F)C(F)(F)C(F)(F)F)C(F)(F)C(F)(F)C(F)(F)C(F)(F)C(F)(F)C(F)(F)F [(C8F17SO2)NH(C6F13SO2)] | – | – | –
36 | – | NS(=O)(=O)CCC(F)(F)C(F)(F)C(F)(F)C(F)(F)C(F)(F)C(F)(F)C(F)(F)C(F)(F)F [C8F17(CH2)2SO2NH2] | – | – | –
0 | 73 | CCCCCCS(N)(=O)=O [Example C6H13SO2NH2, n-hexanesulfamide, reference compound] | – | – | –
80 | – | NS(=O)(=O)C(F)(F)C(F)(F)C(F)(F)C(F)(F)C(F)(F)C(F)(F)C(F)(F)F [Example C7F15SO2NH2] | – | 0 | –
5 | 86 | CCCCCCCCS(N)(=O)=O [Example C8H17SO2NH2, n-octanesulfamide, reference compound] | – | – | –

Further lines, the compound ahead of its results:

Compound | % inhibition of the hydrolysis of nitrophenyl acetate (NPA) catalyzed by carbonic anhydrase (inhibitor 1.35 10^−6 mol/l) [%] | % inhibition of the hydrolysis of nitrophenyl acetate (NPA) catalyzed by carbonic anhydrase (inhibitor 1.35 10^−4 mol/l) [%] | inhibition with respect to carboanhydrase, in words | % inhibition of the hydrolysis of nitrophenyl acetate (NPA) catalyzed by carbonic anhydrase (inhibitor 1.35 10^−7 mol/l) [%] | % inhibition of the hydrolysis of nitrophenyl acetate (NPA) catalyzed by carbonic anhydrase (inhibitor 1.35 10^−8 mol/l) [%]
NS(=O)(=O)C(F)(F)C(F)(F)C(F)(F)C(F)(F)S(N)(=O)=O [(C2F4SO2NH2)2, perfluorobutane-1,4-disulfamide] | 78 | – | very considerable inhibition | 6 | 1
O=S(=O)(NS(=O)(=O)C(F)(F)C(F)(F)C(F)(F)C(F)(F)F)C(F)(F)C(F)(F)C(F)(F)C(F)(F)F [(C4F9SO2)2NH] | 0 | 65 | – | – | –
O=S(=O)(NS(=O)(=O)C(F)(F)C(F)(F)C(F)(F)C(F)(F)C(F)(F)C(F)(F)C(F)(F)C(F)(F)F)C(F)(F)C(F)(F)C(F)(F)C(F)(F)F [(C4F9SO2)NH(C8F17SO2)] | 0 | 97 | – | – | –
O=S(=O)(NS(=O)(=O)C(F)(F)C(F)(F)C(F)(F)C(F)(F)C(F)(F)C(F)(F)F)C(F)(F)C(F)(F)C(F)(F)C(F)(F)C(F)(F)C(F)(F)F [(C6F13SO2)2NH, bis(1,1,2,2,3,3,4,4,5,5,6,6,6)tridecafluoro-n-hexylsulfinimide] | 0 | 85 | – | – | –
[Li+].[NH-]S(=O)(=O)C(F)(F)C(F)(F)C(F)(F)C(F)(F)C(F)(F)C(F)(F)C(F)(F)C(F)(F)F [C8F17SO2NH^−+Li] | 85 | – | – | 3 | –
[NH-]S(=O)(=O)C(F)(F)C(F)(F)C(F)(F)C(F)(F)C(F)(F)C(F)(F)C(F)(F)C(F)(F)F.[Na+] [C8F17SO2NH^−+Na, sodium 1,1,2,2,3,3,4,4,5,5,6,6,7,7,8,8,8-heptadecafluoro-n-octylsulfamide anion] | 94 | – | very considerable inhibition | 40 | 17
NS(=O)(=O)C(F)(F)C(F)(F)C(F)(F)C(F)(F)C(F)(F)C(F)(F)C(F)(F)C(F)(F)F [Example C8F17SO2NH2, 1,1,2,2,3,3,4,4,5,5,6,6,7,7,8,8,8-heptadecafluoro-octanesulfamide] | 88 | – | very considerable inhibition | 7 | 5
